Measured values published in patent publication US20040092456A1, “Methods for identifying glucose uptake modulators” (priority 2002, published 2004).

Columns and labels:
Format in all cases: cell-based, mouse
[1] = tested on: store-mediated Ca^2+ entry (SMCE); experiment: Rate of Mn2+ quenching of fura-2 fluorescence in single FDB muscle fibers (indirect measure of SMCE)
Excerpt: (§1) Adult male mice (NMRI strain) were housed at room temperature and fed ad libitum. Animals were killed by rapid neck disarticulation and muscles removed. Extensor digitorum longus (EDL; mainly fast-twitch fibers)) and soleus (mainly slow-twitch fibers) muscles were used for measurements of 2-deoxyglucose (2-DG) uptake. Flexor digitorum brevis (FDB, mainly fast-twitch fibers) muscles were used in single fiber experiments. All procedures were approved by the local ethics committee.
(§2) Experiments on single FDB muscle fibers were performed at 24° C. The isolated fiber was mounted in a stimulation chamber and continuously superfused by standard Tyrode solution (Lännergren et al. (1987) J Physiol 390:285-293). The free myoplasmic [Ca^2+] ([Ca^2+]i) was measured with the fluorescent Ca^2+ indicator indo-1 (Andrade et al. (1998) J Physiol 509:565-575). An indirect measure of SMCE was obtained by measuring the rate of Mn^2+ entry and quenching of the fluorescence intensity of fura-2 (Hopfet al. (1996) J Biol Chem 271:22358-22367). MnCl2 (100 μmol 1^−1) was added to the bath solution and the fura-2 injected muscle fiber was excited at 360±5 nm (the isosbestic wavelength of fiira-2 under our experimental conditions) while measuring the fluorescence light emitted at 495±5 nm. The rate of Mn^2+ quenching was measured during periods where the rate of decrease of the fluorescent light was stable, i.e. ignoring transient changes induced by changes of the bath solution. Measurements were not performed until 2 min after application of insulin, thus allowing time for insulin to act.

[2] = tested on: single FDB muscle fibers; experiment: Free myoplasmic [Ca2+]i measured with indo-1 in single FDB muscle fibers; conditions: global [Ca^2+]i, 75±13 before, n=4
Excerpt: as §1
as §2, with “The isolated fiber was mounted in a stimulation chamber and continuously superfused by standard Tyrode solution (Lännergren et al. (1987) J Physiol 390:285-293). The free myoplasmic [Ca^2+]” left out, “Measurements were not performed until 2 min after application of insulin, thus allowing time for insulin to act.” left out

[3] = tested on: EDL muscles; experiment: Insulin-mediated 2-deoxyglucose (2-DG) uptake in isolated EDL muscles; conditions: insulin 10 milliunits ml^−1
Excerpt: as §1
(§3) 2-DG uptake was measured essentially as described elsewhere (Shashkin et al. (1995) J Biol Chem 270:25613-25618; Le Marchand-Brustel et al. (1979) J Clin Invest 64:1505-1515). Briefly, muscles were incubated at 35° C. in Krebs bicarbonate buffer containing 2 mmol 1^−1 pyruvate (no glucose) ±an antagonist of SMCE, either 2-APB, a relatively specific inhibitor of SMCE that appears to act directly on SMCE channels (Braun et al. (2001) J Biol Chem 276:1063-1070; Broad et al. (2001) J Biol Chem 276:15945-15952), or MDL, another inhibitor of SMCE with different modes of action as compared to 2-APB (van Rossum et al. (2000) J Biol Chem 275:28562-28568). In other experiments muscles were incubated in 2,5-di(tert-butyl)-1,4-benzohydroquinone (TBQ), an inhibitor of SR Ca^2+ uptake (Westerblad et al. (1994) J Physiol 474:291-301). In some experiments insulin was added (10 milliunits ml^−1) after the initial 30 min incubation period. After an additional 30 min, 2-DG (1 mmol 1^−1; 1 mCi mmol^−1) and inulin (0.2 μCi per ml medium) were added. Muscles were blotted and frozen in liquid nitrogen 20 min after addition of 2-DG. Muscles were then weighed, digested in NaOH at 70° C., cooled and centrifuged, and aliquots of the supernatants were added to scintillation cocktail and counted for ^3H (2-DG) and ^14C (inulin).
In some experiments on EDL muscles, 2-DG glucose uptake was measured after 2-APB removal in the continued presence of insulin. After the initial 30 min incubation period, insulin (10 milliunits ml^−1) was added and remained in the solution for the rest of the experiment. After an additional 30 min, 2-APB (100 μM) was added. […] Control muscles were treated in the same way except that 2-APB was never added.

[4] = tested on: soleus muscles; experiment: Insulin-mediated 2-deoxyglucose (2-DG) uptake in isolated soleus muscles; conditions: insulin 10 milliunits ml^−1
Excerpt: as §1, §3

[5] = tested on: EDL muscles; experiment: Basal 2-DG uptake (no insulin) in isolated EDL muscles; conditions: for Basal rate of 2-DG uptake, EDL: 2-APB 0.1 mmol 1^−1, MDL 300 μmol 1^−1, TBQ 500 nmol 1^−1, mean ± SEM (n)
Excerpt: as §1, §3

[6] = tested on: soleus muscles; experiment: Basal 2-DG uptake (no insulin) in isolated soleus muscles; conditions: for Basal rate of 2-DG uptake, Soleus: MDL 300 μmol 1^−1, TBQ 500 nmol 1^−1, mean ± SEM (n)
Excerpt: as §1, §3

[7] = tested on: skeletal muscle; experiment: Contractile function (tetanic force, relaxation) during drug exposure
Procedure: To ensure that this inhibition was not caused by a generalized, unspecific inhibitory effect of the drug, contractile function was tested during exposure to 2-APB.

Molecule	Increase in the rate of Mn^2+ quenching on addition of insulin ([1]; 0 mmol 1^−1 glucose, n=5)	Insulin-induced change of the rate of Mn^2+ quenching (in words) ([1]; 5.5 mmol 1^−1 glucose, mean data, n=6)	Recovery of the 2-APB-induced decrease of quenching rate by insulin ([1]; insulin 10 mU ml^−1 in continued presence of 2-APB 100 μmol 1^−1)	[Ca^2+]i after application of insulin [2] [nmol 1^−1]	Insulin-mediated 2-DG uptake, EDL ([3]; 100 nmol 1^−1 TBQ, n=6) [μmol 1^−1 min^−1]	Insulin-mediated 2-DG uptake, EDL ([3]; 500 nmol 1^−1 TBQ, n=4) [μmol 1^−1 min^−1]	Effect on insulin-mediated 2-DG uptake, EDL (in words) [3]	Insulin-mediated 2-DG uptake, soleus ([4]; 100 nmol 1^−1 TBQ, n=6) [μmol 1^−1 min^−1]	Insulin-mediated 2-DG uptake, soleus ([4]; 500 nmol 1^−1 TBQ, n=4) [μmol 1^−1 min^−1]	Effect on insulin-mediated 2-DG uptake, soleus (in words) [4]	Effect on basal 2-DG uptake, EDL (in words) [5]	Basal rate of 2-DG uptake, EDL [5]	Effect on basal 2-DG uptake, soleus (in words) [6]	Basal rate of 2-DG uptake, Soleus [6]	Increase of tetanic force ([7]; 2-APB 100 μmol 1^−1, 30 min (n=5), TBQ 500 nmol 1^−1 (n=4)) [%]	Relaxation speed (in words) ([7]; 2-APB 100 μmol 1^−1, 30 min, TBQ 500 nmol 1^−1)	Reversibility of the force reduction on washout ([7]; 100 μmol 1^−1 MDL)	Reduction of tetanic force ([7]; 100 μmol 1^−1 MDL, 30 min of exposure, n=4) [%]
insulin	about 10%	no significant insulin-induced change	about half	74±13	–	–	–	–	–	–	–	–	–	–	–	–	–	–
CC(C)(C)c1cc(O)c(C(C)(C)C)cc1O [TBQ, 2,5-di(tert-butyl)-1,4-benzohydroquinone]	–	–	–	–	93±5	103±4	no effect	150±7	179±8	no effect	no significant effect	37 ± 6 (4) μmol 1^−1 min^−1	no significant effect	63 ± 5 (4) μmol 1^−1 min^−1	4±2	slight slowing of relaxation	–	–
c1ccc([C@H]2CCC[C@H]2NC2=NCCCCCCCCCCC2)cc1 (relative stereo) [MDL, cis-N-(2-phenylcyclopentyl)azacyclotridec-1-en-2-amine]	–	–	–	–	–	–	decreased insulin-mediated 2-DG uptake in a dose-dependent manner	–	–	decreased insulin-mediated 2-DG uptake in a dose-dependent manner	not significantly affected	42 ± 3 (4) μmol 1^−1 min^−1	not significantly affected	42 ± 4 (4) μmol 1^−1 min^−1	–	–	not reversed on washout	22±2
